According to publication PMC5034043 (The Journal of Biological Chemistry, 2016):
Read-outs that look alike come from different tables or passages of the source.

Assays:
horse spleen apoferritin [1] = molecular target: T1, horse spleen apoferritin (Equus caballus, UniProt P02791); experiment: Isothermal titration calorimetry binding to apoferritin; conditions: one-site model, read-out: KD (95% CI), ITC
T1 construct: soluble protein model horse spleen apoferritin; from tissue; host or cells: horse spleen
T1 sequence (P02791 2-175 limits assumed): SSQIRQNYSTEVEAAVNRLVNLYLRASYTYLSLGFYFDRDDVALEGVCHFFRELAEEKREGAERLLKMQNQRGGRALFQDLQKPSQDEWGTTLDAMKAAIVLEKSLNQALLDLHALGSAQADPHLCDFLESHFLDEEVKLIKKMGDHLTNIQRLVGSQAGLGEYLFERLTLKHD
Experimental: Isothermal titration calorimetry isotherms for binding to soluble protein model horse spleen apoferritin were conducted as reported previously ([31]) and were resolved using a VP-isothermal titration calorimetry microcalorimeter (MicroCal, Inc., Northampton, MA). Origin 5.0 software was used to best-fit thermodynamic parameters to the heat profiles.

[2] = Physicochemical properties (density)
horse spleen apoferritin [3] = molecular target: T1, horse spleen apoferritin; experiment: 1-AMA displacement fluorescence assay; type: binding
Experimental: 1-AMA fluorescence inhibition has been reported as a reliable measurement of anesthetic occupation of the horse spleen apoferritin anesthetic site ([64]). 1-AMA displacement studies were conducted as described previously ([29]). The fluorescence intensity versus concentration data were fitted to variable slope Hill models to obtain the IC50 and Hill slope. The KD value was calculated using the Cheng-Prusoff equation to correct for the presence of the 1-AMA competitors.

α1β2γ2L GABAA receptors = molecular target: T2, α1β2γ2L GABAA receptors (Homo sapiens, UniProt P14867+P47870); experiment: cell-based
T2 construct: expressed in transfected cells; host or cells: Xenopus laevis oocytes
Experimental: GABAA receptor expression in X. laevis oocytes was completed as described previously ([40]). cDNAs for GABAA receptor α1, β2, and γ2L subunits were generously provided by Dr. Robert Pearce (University of Wisconsin). All animal care and experimental procedures involving X. laevis frogs were carried out according to a protocol approved by the IACUC of Thomas Jefferson University. GABAA receptor currents expressed in X. laevis oocytes were recorded as reported previously ([40]). Data acquisition and initial analysis were performed using pClamp 9.2/10.3 (Molecular Devices, Sunnyvale, CA). Macroscopic currents were low-pass filtered at 1 kHz and digitized at 2 kHz. Data were fit to a sigmoidal dose-response curve with variable Hill slope.

X. laevis tadpoles = experiment: animal or person; type: in vivo; conditions: for EC50: Xenopus laevis, read-out: EC50 (95% CI); for observable toxicity in tadpoles / pharmacological end point in tadpoles: in vivo
Experimental: Behavioral activity was initially determined in albino X. laevis tadpoles (stages 45–47) as described previously ([29], [33]). All animal care and experimental procedures involving X. laevis tadpoles were carried out according to a protocol approved by the IACUC of the University of Pennsylvania.

T2 sequence (P14867 28-456): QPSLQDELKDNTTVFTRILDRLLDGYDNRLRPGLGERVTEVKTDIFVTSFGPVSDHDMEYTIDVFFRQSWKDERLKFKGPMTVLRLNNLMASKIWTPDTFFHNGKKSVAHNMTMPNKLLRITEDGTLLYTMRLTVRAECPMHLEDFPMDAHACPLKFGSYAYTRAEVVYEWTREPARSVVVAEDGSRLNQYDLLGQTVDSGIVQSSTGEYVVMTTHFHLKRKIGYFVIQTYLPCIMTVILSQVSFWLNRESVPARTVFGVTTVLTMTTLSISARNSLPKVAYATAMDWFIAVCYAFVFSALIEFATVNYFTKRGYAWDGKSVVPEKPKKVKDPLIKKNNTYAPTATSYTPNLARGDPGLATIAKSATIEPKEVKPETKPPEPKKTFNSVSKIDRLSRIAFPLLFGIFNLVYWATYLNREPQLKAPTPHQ
T2 sequence (P47870 25-512 limits assumed): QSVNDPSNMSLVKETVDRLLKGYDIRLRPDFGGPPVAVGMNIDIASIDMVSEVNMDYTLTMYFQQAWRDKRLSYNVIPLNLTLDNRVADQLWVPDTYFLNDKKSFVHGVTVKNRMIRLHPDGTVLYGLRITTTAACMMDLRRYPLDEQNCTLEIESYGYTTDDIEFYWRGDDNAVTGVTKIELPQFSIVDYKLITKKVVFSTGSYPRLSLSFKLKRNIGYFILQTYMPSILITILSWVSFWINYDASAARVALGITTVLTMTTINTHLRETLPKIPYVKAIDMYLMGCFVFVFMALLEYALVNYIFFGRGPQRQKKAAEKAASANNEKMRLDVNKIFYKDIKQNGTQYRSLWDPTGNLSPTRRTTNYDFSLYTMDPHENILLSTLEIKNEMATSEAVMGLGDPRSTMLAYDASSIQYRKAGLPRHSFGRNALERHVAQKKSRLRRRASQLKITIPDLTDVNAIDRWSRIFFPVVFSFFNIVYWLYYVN
T2 sequence (P18507 40-475 partner): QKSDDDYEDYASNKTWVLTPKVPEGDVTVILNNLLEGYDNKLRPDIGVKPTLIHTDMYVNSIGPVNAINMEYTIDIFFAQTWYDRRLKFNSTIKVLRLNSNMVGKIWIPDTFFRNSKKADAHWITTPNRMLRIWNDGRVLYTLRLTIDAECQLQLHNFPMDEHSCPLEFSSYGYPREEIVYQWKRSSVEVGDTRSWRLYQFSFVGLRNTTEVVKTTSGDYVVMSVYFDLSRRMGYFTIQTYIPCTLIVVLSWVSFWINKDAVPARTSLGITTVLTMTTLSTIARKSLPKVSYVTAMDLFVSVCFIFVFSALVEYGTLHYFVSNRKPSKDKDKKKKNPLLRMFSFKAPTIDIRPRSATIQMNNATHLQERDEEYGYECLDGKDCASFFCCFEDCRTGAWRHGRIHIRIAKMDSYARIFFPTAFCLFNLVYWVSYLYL

Row | Compound | Kd (horse spleen apoferritin [1]) [µM] | Density [2] [g/mL] | Hill slope (mean ± S.E.), 1-AMA displacement (horse spleen apoferritin [3]) | Kd (horse spleen apoferritin [3]; fluorescence data derived from the Cheng-Prusoff equation, read-out: KD (95% CI), 1-AMA displacement) [µM] | EC50 (α1β2γ2L GABAA receptors; read-out: EC50 for positive modulation) [µM] | EC50 (X. laevis tadpoles) [µM] | observable toxicity in tadpoles (X. laevis tadpoles) | pharmacological end point in tadpoles (X. laevis tadpoles) | Kd (horse spleen apoferritin [3]) [µM] | EC50 (α1β2γ2L GABAA receptors) [µM]
1 | C#CCOCc1ccc(C2(C(F)(F)F)N=N2)cc1O [AziPm-click (1), 2-((prop-2-yn-1-yloxy)methyl)-5-(3-(trifluoromethyl)-3H-diazirin-3-yl)phenol] | 22 | 1.19 | −0.97 ± 0.39 | 4 | 49 | 6.1 | no observable toxicity | reversible hypnosis | – | –
2 | CC(C)c1cccc(C(C)C)c1O [propofol, 2,6-diisopropylphenol, reference compound] | 9 | 0.96 | −1.1 ± 0.33 | – | – | 0.9 | no observable toxicity | reversible hypnosis | 2.4 | 10
